From ChEMBL document CHEMBL1201862, “PubChem BioAssay data set” (2004)
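Compound exposure: 48 hours, 5 concentrations, 96-well plates. GI50 = concentration required for 50% inhibition of growth.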 Calls of active or inactive are those of the source. No stated cut-off is given here; in the data, active = GI50 up to about 1.1 µM and inactive = higher.

Experiments:
Assay in all cases: growth of human tumour cells (NCI), 48 h
HL-60 = test system: HL-60
HOP-62 = test system: HOP-62
COLO 205 = test system: COLO 205
HT-29 = test system: HT-29
SK-MEL-5 = test system: SK-MEL-5
OVCAR-8 = test system: OVCAR-8
IGROV-1 = test system: IGROV-1
KM12 = test system: KM12
U-251 = test system: U-251
OVCAR-3 = test system: OVCAR-3
OVCAR-5 = test system: OVCAR-5
SF-268 = test system: SF-268
MOLT-4 = test system: MOLT-4
OVCAR-4 = test system: OVCAR-4
LOX IMVI = test system: LOX IMVI
CCRF-CEM = test system: CCRF-CEM
SNB-19 = test system: SNB-19
UACC-62 = test system: UACC-62
K562 = test system: K562
SK-MEL-28 = test system: SK-MEL-28

CSCSCC(CO)NC(=O)/C=C\c1c(C)[nH]c(=O)[nH]c1=O (stereo not drawn)
GI50 (HL-60): 9.51 µM (inactive) | GI50 (HOP-62): 38.8 µM (inactive) | GI50 (COLO 205): 8.79 µM (inactive) | GI50 (HT-29): 19.3 µM (inactive) | GI50 (SK-MEL-5): 21.5 µM (inactive) | GI50 (OVCAR-8): 10 µM (inactive) | GI50 (IGROV-1): 23.7 µM (inactive) | GI50 (KM12): 12.7 µM (inactive) | GI50 (U-251): 7.57 µM (inactive) | GI50 (OVCAR-3): 1.79 µM (inactive) | GI50 (OVCAR-5): 57.3 µM (inactive) | GI50 (SF-268): 7.64 µM (inactive) | GI50 (MOLT-4): 7.74 µM (inactive) | GI50 (OVCAR-4): 1.23 µM (inactive) | GI50 (LOX IMVI): 14.1 µM (inactive) | GI50 (CCRF-CEM): 2.27 µM (inactive) | GI50 (SNB-19): 14.7 µM (inactive) | GI50 (UACC-62): 22.4 µM (inactive) | GI50 (K562): 5.2 µM (inactive) | GI50 (SK-MEL-28): 28.6 µM (inactive)

Oc1ccc(Cl)cc1C1=Nn2c(COc3ccc4c(c3)CCCC4)nnc2SC1
GI50 (HL-60): 15 µM (inactive) | GI50 (HOP-62): 13.2 µM (inactive) | GI50 (COLO 205): 16 µM (inactive) | GI50 (SK-MEL-5): 5.25 µM (inactive) | GI50 (OVCAR-8): 14.9 µM (inactive) | GI50 (IGROV-1): 11.6 µM (inactive) | GI50 (KM12): 14.6 µM (inactive) | GI50 (U-251): 15.3 µM (inactive) | GI50 (OVCAR-3): 12.6 µM (inactive) | GI50 (OVCAR-5): 17.2 µM (inactive) | GI50 (SF-268): 16.4 µM (inactive) | GI50 (MOLT-4): 11 µM (inactive) | GI50 (OVCAR-4): 1.44 µM (inactive) | GI50 (LOX IMVI): 14 µM (inactive) | GI50 (CCRF-CEM): 17 µM (inactive) | GI50 (SNB-19): 20.7 µM (inactive) | GI50 (UACC-62): 12.4 µM (inactive) | GI50 (K562): 10.5 µM (inactive) | GI50 (SK-MEL-28): 0.129 µM (active)

CC(C)C1=CC2=CC[C@@H]3[C@](C)(CCC[C@@]3(C)C(=O)O)[C@H]2CC1 [ABIETIC ACID]
GI50 (HL-60): > 50.5 µM (inactive) | GI50 (HOP-62): > 67.8 µM (inactive) | GI50 (COLO 205): 40.3 µM (inactive) | GI50 (HT-29): 30.1 µM (inactive) | GI50 (SK-MEL-5): 60.5 µM (inactive) | GI50 (OVCAR-8): > 56.9 µM (inactive) | GI50 (IGROV-1): 57.5 µM (inactive) | GI50 (KM12): 37.8 µM (inactive) | GI50 (U-251): 50.1 µM (inactive) | GI50 (OVCAR-3): 35.7 µM (inactive) | GI50 (OVCAR-5): > 75.5 µM (inactive) | GI50 (SF-268): > 69 µM (inactive) | GI50 (MOLT-4): 40.2 µM (inactive) | GI50 (OVCAR-4): 59.6 µM (inactive) | GI50 (LOX IMVI): 58.6 µM (inactive) | GI50 (CCRF-CEM): 42.9 µM (inactive) | GI50 (SNB-19): > 67.1 µM (inactive) | GI50 (UACC-62): 36.3 µM (inactive) | GI50 (K562): > 53 µM (inactive) | GI50 (SK-MEL-28): > 59.3 µM (inactive)

CCOC1CC2OC(=O)C1C=C2C(=O)OC (stereo not drawn)
GI50 (HL-60): 19.6 µM (inactive) | GI50 (HOP-62): > 100 µM (inactive) | GI50 (COLO 205): 19.1 µM (inactive) | GI50 (HT-29): 37.5 µM (inactive) | GI50 (SK-MEL-5): 36.4 µM (inactive) | GI50 (IGROV-1): 46.6 µM (inactive) | GI50 (KM12): 54.5 µM (inactive) | GI50 (U-251): 50.1 µM (inactive) | GI50 (OVCAR-3): 28.4 µM (inactive) | GI50 (OVCAR-5): > 100 µM (inactive) | GI50 (SF-268): 28.9 µM (inactive) | GI50 (MOLT-4): 17.4 µM (inactive) | GI50 (OVCAR-4): 23.1 µM (inactive) | GI50 (LOX IMVI): 87.5 µM (inactive) | GI50 (CCRF-CEM): 16.8 µM (inactive) | GI50 (SNB-19): 28 µM (inactive) | GI50 (UACC-62): 30.5 µM (inactive) | GI50 (K562): 25.8 µM (inactive) | GI50 (SK-MEL-28): 21 µM (inactive)

CCOC(=O)C1C(c2cc(OC)c(O)c(OC)c2)c2cc3c(cc2OC1(C)O)OCO3 (stereo not drawn)
GI50 (HL-60): > 100 µM (inactive) | GI50 (HOP-62): 14.3 µM (inactive) | GI50 (COLO 205): > 100 µM (inactive) | GI50 (HT-29): 41.1 µM (inactive) | GI50 (SK-MEL-5): 36 µM (inactive) | GI50 (OVCAR-8): > 100 µM (inactive) | GI50 (IGROV-1): > 100 µM (inactive) | GI50 (U-251): 78.9 µM (inactive) | GI50 (OVCAR-3): 65.3 µM (inactive) | GI50 (MOLT-4): 35 µM (inactive) | GI50 (OVCAR-4): 57.8 µM (inactive) | GI50 (LOX IMVI): 93.1 µM (inactive) | GI50 (CCRF-CEM): > 100 µM (inactive) | GI50 (SNB-19): > 100 µM (inactive) | GI50 (UACC-62): 43.9 µM (inactive) | GI50 (K562): > 100 µM (inactive) | GI50 (SK-MEL-28): 60.7 µM (inactive)

O=C1OC(c2ccccc2)=N/C1=C\c1cccnc1
GI50 (HL-60): 20.7 µM (inactive) | GI50 (HOP-62): > 100 µM (inactive) | GI50 (HT-29): > 100 µM (inactive) | GI50 (SK-MEL-5): > 100 µM (inactive) | GI50 (OVCAR-8): > 100 µM (inactive) | GI50 (IGROV-1): > 100 µM (inactive) | GI50 (KM12): > 100 µM (inactive) | GI50 (U-251): > 100 µM (inactive) | GI50 (OVCAR-3): > 100 µM (inactive) | GI50 (OVCAR-5): > 100 µM (inactive) | GI50 (SF-268): > 100 µM (inactive) | GI50 (MOLT-4): 2.84 µM (inactive) | GI50 (OVCAR-4): > 100 µM (inactive) | GI50 (CCRF-CEM): 29.2 µM (inactive) | GI50 (SNB-19): > 100 µM (inactive) | GI50 (UACC-62): > 100 µM (inactive) | GI50 (K562): 34.8 µM (inactive) | GI50 (SK-MEL-28): > 100 µM (inactive)

N/C(=N\O)N/N=C\c1ccccc1O
GI50 (HL-60): 0.977 µM (active) | GI50 (HOP-62): 11.2 µM (inactive) | GI50 (COLO 205): 5.81 µM (inactive) | GI50 (HT-29): 4.19 µM (inactive) | GI50 (SK-MEL-5): 10 µM (inactive) | GI50 (OVCAR-8): 3.2 µM (inactive) | GI50 (IGROV-1): 11.3 µM (inactive) | GI50 (KM12): 5.02 µM (inactive) | GI50 (U-251): 8.34 µM (inactive) | GI50 (OVCAR-3): 10.4 µM (inactive) | GI50 (OVCAR-5): 37.5 µM (inactive) | GI50 (SF-268): 12.4 µM (inactive) | GI50 (MOLT-4): 7.13 µM (inactive) | GI50 (OVCAR-4): 4.06 µM (inactive) | GI50 (LOX IMVI): 5.48 µM (inactive) | GI50 (CCRF-CEM): 5.6 µM (inactive) | GI50 (SNB-19): 18.9 µM (inactive) | GI50 (UACC-62): 5.64 µM (inactive) | GI50 (K562): 3.99 µM (inactive) | GI50 (SK-MEL-28): 19.3 µM (inactive)
